Each structure is given as a SMILES string.

What all share (format): cell-based
One test deals with MCF7. The experiment in a line: Antiproliferative activity on MCF7 cancer cells. Conditions: Homo sapiens.
In the next test the test system is HeLa. The experiment in a line: Antiproliferative activity on HeLa cancer cells. Conditions: Homo sapiens.
The test system of another test is A549. The experiment in a line: Antiproliferative activity on A549 cancer cells. Conditions: Homo sapiens.
The test system of another test is DU145. The experiment in a line: Antiproliferative activity on DU145 cancer cells. To be noted: Homo sapiens, DU-145.

Regarding `COc1cc(NC(=O)c2c(O)n(-c3ccccc3)c(=S)n(-c3ccccc3)c2=O)cc(OC)c1O`, the IC50 was determined as 53.5 ± 1.9 µM in the test on MCF7, 18.1 ± 0.8 µM in the test with HeLa, 17.5 ± 1.1 µM in the test on A549 and 26.7 ± 0.1 µM in the test on DU145.
In the same order, the values of `O=C(Nc1ccc(O)cc1)c1c(O)n(-c2ccccc2)c(=S)n(-c2ccccc2)c1=O` are 66.1 ± 7.5 µM, 42.9 ± 6.1 µM, 37.1 ± 3.7 µM and 42.5 ± 7.7 µM.
In the same order, the values of `COc1cccc(NC(=O)c2c(O)n(-c3ccccc3)c(=S)n(-c3ccccc3)c2=O)c1` are 14 ± 0.9 µM, 8.5 ± 0.5 µM, 6.9 ± 0.2 µM and 12.5 ± 1.5 µM.
Taken in the same sequence, the figures for `O=C(Nc1cccc(O)c1)c1c(O)n(-c2ccccc2)c(=S)n(-c2ccccc2)c1=O` were 94.2 ± 3.1 µM, 39.1 ± 0.7 µM, 59.4 ± 6.1 µM and 49.6 ± 2.7 µM.

As a reminder, the IC50 is the concentration needed to halve the response being measured. Low readings indicate greater potency in that assay, high ones weaker potency in that assay.

The values are drawn from patent publication US11008293B2, “5-carboxamide-2-thiobarbituric acids and use thereof as medicaments” (FONDAZIONE ISTITUTO ITALIANO DI TECNOLOGIA, priority 2017, dated 2021).
